Measurements as given in paper PMC10996005, “Identification and Development of Cyclic Peptide Inhibitors of Hypoxia Inducible Factors 1 and 2 That Disrupt Hypoxia-Response Signaling in Cancer Cells” (Journal of the American Chemical Society, 2024).
Where a SMILES comes first, the peptide text is derived from it. [ ]: non-standard residue; d: D form. Phe(4-I) = N[C@@H](Cc1ccc(I)cc1)C(=O)O

Experiments:
HIF-1α PAS-B domain = molecular target: T1, HIF-1α PAS-B domain (Homo sapiens, UniProt Q16665); experiment: MST binding to the PAS-B domain of HIF-1α
T1 construct: made in house
T1 sequence (Q16665 238-349 limits assumed): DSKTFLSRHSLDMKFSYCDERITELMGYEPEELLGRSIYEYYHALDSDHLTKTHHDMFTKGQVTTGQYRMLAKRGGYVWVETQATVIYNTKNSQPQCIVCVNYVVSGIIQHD
Experimental: All reagents were purchased from Fisher Scientific or Sigma Aldrich UK unless specified otherwise.
Restriction enzymes and microbiology reagents were purchased from New England Biolabs Inc., Fisher Scientific (UK) or Promega (UK) and were used as directed by the manufacturer. Primers and oligonucleotides were synthesised by Integrated DNA Technologies (UK). DNA sequencing was carried out by Eurofins MWG Operon (Germany).
Construction of the RTHS and SICLOPPS library, screening, purification of recombinant HIF proteins, and the PLA was conducted as previously described in Miranda et al., J. Am. Chem. Soc., 2013, 135(28); […]
Protein labelling with MST dye
Protein was buffer exchanged from storage buffer into labelling buffer (0.1 M NaHCO3, pH 8.5) using a PD spintrap G-25 column (GE healthcare). The protein concentration was then adjusted to 20 µM.
The commercially sourced MST dye (NanoTemper) was prepared as a 470 µM solution in DMSO, which was then further diluted to 60 µM using labelling buffer. To the protein solution was added an equal volume of dye solution, and the labelling reaction was left for 1 hour in the dark at room temperature.
The labelled protein was separated from unreacted dye by elution through a PD minitrap G-25 column (GE healthcare). Labelled protein was then aliquoted and stored at -80 °C. Extent of labelling was measured by the absorbance obtained using the UV-vis mode on a NanoDrop ND-1000 Spectrophotometer (NanoDrop Technologies, USA).
Labelled protein was thawed on ice and diluted to 50 nM in assay buffer containing 50 mM Tris pH 8.0, 150 mM NaCl, 5% (v/v) glycerol, 1 mM TCEP and 0.05% TWEEN-20. The protein solution was then centrifuged at 12000 rpm for 15 minutes at 4 °C and left on ice. Compounds were prepared and serially diluted in DMSO at 10x assay concentration, before diluting to 2x assay concentration in assay buffer.
The 2x compound solutions were then mixed 1:1 (v/v) with 50 nM labelled protein solution and left to incubate for 1 hour at room temperature. Solutions were then loaded into Monolith NT.115 Premium Capillaries (NanoTemper) and placed in the sample tray. MST experiments were carried out

CAIX in HeLa cells = experiment: qPCR of CAIX in HeLa cells; assay type: cell-based; settings: hypoxic HeLa cells, vs DMSO-treated hypoxic cells
Experimental: The effect of our lead inhibitor on hypoxia-response signaling was measured by qPCR in cancer cell lines. Cells were treated with either 2 μM of an analogue of the HIF-2-specific inhibitor belzutifan, PT2399 (control), or 50 μM of cyclo-CRLII(4-iodo)F, incubated in hypoxia for 24 h, and the levels of the hypoxia-response genes CAIX([41],[42]) and VEGF([43]) were measured by qPCR. We observed a 51% drop in CAIX transcription and a 43% drop in VEGF transcription in hypoxic MCF-7 (breast cancer) cells treated with 50 μM of cyclo-CRLII(4-iodo)F versus hypoxic MCF-7 cells treated with DMSO only (Figure 6e). […] We also observed a 49% drop in CAIX expression in hypoxic HeLa (cervical cancer) cells treated with cyclo-CRLII(4-iodo)F (Figure S9b). […] We observed a 35% drop in HIF-2-driven VEGF transcription in 786-O cells treated with 50 μM of cyclo-CRLII(4-iodo)F compared to a 50% decrease in 786-O cells treated with PT2399.
Figure S9. (a) The effect of cyclo-CRLII(4-iodo)F on the viability of T-ReX-293 cells. […]
The Flp-In-HRE-eYFP cells were plated on 24-well plates at 80% confluency and incubated overnight under normoxic conditions. […] An equal amount of the supernatant from each treatment was plated on a 96-well plate, and the emission of eYFP was measured using a microplate reader. […]

For `CC[C@H](C)[C@@H]1NC(=O)[C@H](CC(C)C)NC(=O)[C@H](CCCNC(=N)N)NC(=O)[C@H](CS)NC(=O)[C@H](Cc2ccc(I)cc2)NC(=O)[C@H]([C@@H](C)CC)NC1=O` [cyclo-CRLII(4-iodo)F] (cyclo(CRLII[Phe(4-I)])), the “improvement in HIF-1α binding affinity compared to the parent cyclic peptide cyclo-CRLIIF” value (HIF-1α PAS-B domain; MST KD ratio) was 4.6 fold, the Kd (HIF-1α PAS-B domain; MST, mean ± SEM, n = 2 (n = 1 for most C1 analogues, n = 3 in Figure S2), read-out: KD for HIF-1α PAS-B) was 800 ± 200 nM and the “drop in CAIX expression” value (CAIX in HeLa cells) was 49%.
